Assay results: ChEMBL document CHEMBL1201862, “PubChem BioAssay data set” (2004)
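Each compound was tested at five concentrations against cells in 96-well plates for 48 hours. Here, GI50 denotes the concentration required for 50% inhibition of growth.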 The source made the active and inactive calls. Rule as the data show it: active = GI50 up to about 1.1 µM and inactive = higher.

Legend:
Assay in all cases: DTP human tumour cell line panel, 48 h
786-0 = tested on: 786-0
A549 = tested on: A549
ACHN = tested on: ACHN
CCRF-CEM = tested on: CCRF-CEM
COLO 205 = tested on: COLO 205
EKVX = tested on: EKVX
HCT-116 = tested on: HCT-116
HL-60 = tested on: HL-60
HT-29 = tested on: HT-29
IGROV-1 = tested on: IGROV-1
LOX IMVI = tested on: LOX IMVI
MOLT-4 = tested on: MOLT-4
NCI-H522 = tested on: NCI-H522
SF-268 = tested on: SF-268
SN12C = tested on: SN12C
SW-620 = tested on: SW-620
UO-31 = tested on: UO-31

Measured: GI50

CCOC(=O)C1(c2ccccc2)CCCNCC1 (stereo not drawn)
inactive: 786-0 > 100 µM | A549 > 100 µM | ACHN 85.9 µM | CCRF-CEM 28.1 µM | COLO 205 > 100 µM | EKVX > 100 µM | HCT-116 58.9 µM | HL-60 98.4 µM | HT-29 77.8 µM | IGROV-1 > 100 µM | LOX IMVI > 100 µM | MOLT-4 45.9 µM | NCI-H522 7.91 µM | SF-268 > 100 µM | SN12C 39.4 µM | SW-620 > 100 µM | UO-31 > 100 µM

CCC1C(=O)OCc2c1cc1n(c2=O)CCC12OCCO2 (stereo not drawn)
inactive: 786-0 > 100 µM | A549 > 100 µM | ACHN > 100 µM | CCRF-CEM > 100 µM | COLO 205 > 100 µM | EKVX > 100 µM | HCT-116 > 100 µM | HL-60 > 100 µM | HT-29 > 100 µM | IGROV-1 > 100 µM | LOX IMVI > 100 µM | MOLT-4 > 100 µM | NCI-H522 > 100 µM | SF-268 > 100 µM | SN12C > 100 µM | SW-620 > 100 µM | UO-31 > 100 µM

N#CC(C(=O)C(=O)NCCCNC(=O)C(=O)C(C#N)c1ccccc1)c1ccccc1 (stereo not drawn)
inactive: 786-0 > 100 µM | A549 > 100 µM | ACHN > 100 µM | CCRF-CEM > 100 µM | COLO 205 > 100 µM | EKVX > 100 µM | HCT-116 > 100 µM | HL-60 > 100 µM | HT-29 > 100 µM | IGROV-1 > 100 µM | LOX IMVI > 100 µM | MOLT-4 > 100 µM | NCI-H522 > 100 µM | SF-268 > 100 µM | SN12C > 100 µM | SW-620 > 100 µM | UO-31 > 100 µM

O=[N+]([O-])c1ccc(NSc2ccccc2)cc1
inactive: 786-0 16.4 µM | A549 29 µM | ACHN 33.2 µM | CCRF-CEM 3.03 µM | COLO 205 30.7 µM | EKVX 30 µM | HCT-116 25.2 µM | HL-60 15 µM | IGROV-1 10.7 µM | LOX IMVI 13.1 µM | MOLT-4 10.8 µM | NCI-H522 17.2 µM | SF-268 28.2 µM | SN12C 17.2 µM | SW-620 24.2 µM | UO-31 26.8 µM

COc1cc(C(N)=O)c(OC)c(OC)c1OC
inactive: 786-0 > 100 µM | A549 > 100 µM | ACHN > 100 µM | CCRF-CEM > 100 µM | COLO 205 > 100 µM | EKVX > 100 µM | HCT-116 > 100 µM | HL-60 > 100 µM | HT-29 > 100 µM | IGROV-1 > 100 µM | LOX IMVI > 100 µM | MOLT-4 > 100 µM | NCI-H522 > 100 µM | SF-268 > 100 µM | SN12C > 100 µM | SW-620 > 100 µM | UO-31 > 100 µM

NC(=S)N/N=C1\C(=O)N(c2cccc([N+](=O)[O-])c2)C(=O)C1C(=O)Nc1cccc([N+](=O)[O-])c1 (stereo not drawn)
inactive: 786-0 > 100 µM | A549 > 100 µM | ACHN > 100 µM | CCRF-CEM > 100 µM | COLO 205 > 100 µM | EKVX > 100 µM | HCT-116 > 100 µM | HL-60 38.4 µM | HT-29 > 100 µM | IGROV-1 > 100 µM | LOX IMVI > 100 µM | MOLT-4 > 100 µM | NCI-H522 > 100 µM | SF-268 > 100 µM | SN12C > 100 µM | SW-620 > 100 µM | UO-31 > 100 µM

O=C(O)c1c[nH]c2c(ccc3ncccc32)c1=O
inactive: 786-0 > 100 µM | A549 > 100 µM | ACHN > 100 µM | CCRF-CEM > 100 µM | COLO 205 > 100 µM | EKVX > 100 µM | HCT-116 > 100 µM | HL-60 > 100 µM | HT-29 > 100 µM | IGROV-1 > 100 µM | LOX IMVI > 100 µM | MOLT-4 > 100 µM | NCI-H522 > 100 µM | SF-268 > 100 µM | SN12C > 100 µM | SW-620 > 100 µM | UO-31 > 100 µM

CN(C)CC1CCCC/C1=N/O (stereo not drawn)
inactive: 786-0 > 100 µM | A549 > 100 µM | ACHN > 100 µM | CCRF-CEM > 100 µM | COLO 205 > 100 µM | EKVX > 100 µM | HCT-116 > 100 µM | HL-60 > 100 µM | HT-29 > 100 µM | IGROV-1 > 100 µM | LOX IMVI > 100 µM | MOLT-4 > 100 µM | NCI-H522 > 100 µM | SF-268 > 100 µM | SN12C > 100 µM | SW-620 > 100 µM | UO-31 > 100 µM

O=C(NS(=O)(=O)c1ccccc1)C(Cc1ccccc1)C(Cc1ccccc1)C(=O)NS(=O)(=O)c1ccccc1 (stereo not drawn)
inactive: 786-0 > 100 µM | A549 > 100 µM | ACHN > 100 µM | CCRF-CEM > 100 µM | COLO 205 > 100 µM | EKVX > 100 µM | HCT-116 > 100 µM | HL-60 > 100 µM | HT-29 > 100 µM | IGROV-1 > 100 µM | LOX IMVI > 100 µM | MOLT-4 > 100 µM | NCI-H522 > 100 µM | SF-268 > 100 µM | SN12C > 100 µM | SW-620 > 100 µM | UO-31 > 100 µM

O=S1(=O)c2ccccc2N(O)C2=NCCN21
inactive: 786-0 > 100 µM | A549 > 100 µM | ACHN > 100 µM | CCRF-CEM > 100 µM | COLO 205 > 100 µM | EKVX > 100 µM | HCT-116 > 100 µM | HL-60 > 100 µM | HT-29 > 100 µM | IGROV-1 > 100 µM | LOX IMVI > 100 µM | MOLT-4 > 100 µM | NCI-H522 > 100 µM | SF-268 > 100 µM | SN12C > 100 µM | SW-620 > 100 µM | UO-31 > 100 µM

COC1C2C=CC(C2)[C@H]1[N+](=O)[O-] (stereo partly drawn)
inactive: 786-0 > 100 µM | A549 > 100 µM | ACHN > 100 µM | CCRF-CEM 74.1 µM | COLO 205 > 100 µM | EKVX > 100 µM | HCT-116 > 100 µM | HL-60 28.8 µM | HT-29 > 100 µM | IGROV-1 > 100 µM | LOX IMVI > 100 µM | MOLT-4 > 100 µM | NCI-H522 > 100 µM | SF-268 > 100 µM | SN12C > 100 µM | SW-620 95.7 µM | UO-31 > 100 µM

O=C(Cc1nc2ccccc2c(=O)n1-c1ccccc1Cl)c1ccncc1
inactive: 786-0 > 100 µM | A549 > 100 µM | ACHN > 100 µM | CCRF-CEM > 100 µM | COLO 205 > 100 µM | EKVX > 100 µM | HCT-116 > 100 µM | HL-60 37.6 µM | HT-29 > 100 µM | IGROV-1 > 100 µM | LOX IMVI > 100 µM | MOLT-4 > 100 µM | NCI-H522 > 100 µM | SF-268 > 100 µM | SN12C > 100 µM | SW-620 > 100 µM | UO-31 > 100 µM
